Assay results reported in ChEMBL document CHEMBL1201862, “PubChem BioAssay data set” (2004).
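Tested at 5 concentrations; 48 h exposure; 96-well plates; endpoints linearly interpolated, else capped at highest concentration. GI50 = concentration required for 50% inhibition of growth.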 Activity calls are given as the source filed them. No stated cut-off is given here; in the data, active = GI50 up to about 1.1 µM and inactive = higher.

How the values were obtained:
Assay in all cases: NCI-60 cell line screen, 48 h
[1] = system: SF-539
[2] = system: KM12
[3] = system: HT-29
[4] = system: MCF7
[5] = system: Hs-578T
[6] = system: MDA-N
[7] = system: OVCAR-3
[8] = system: CAKI-1
[9] = system: SK-MEL-5
[10] = system: TK-10
[11] = system: U-251
[12] = system: SF-268
[13] = system: PC-3
[14] = system: COLO 205
[15] = system: SN12C
[16] = system: Malme-3M
[17] = system: BT-549
[18] = system: EKVX
[19] = system: SK-MEL-2
[20] = system: SNB-75
[21] = system: MDA-MB-435
[22] = system: OVCAR-8
[23] = system: RPMI-8226
[24] = system: MOLT-4
[25] = system: OVCAR-4
[26] = system: NCI/ADR-RES
[27] = system: LOX IMVI
[28] = system: HCT-116
[29] = system: MDA-MB-231
[30] = system: SK-MEL-28
[31] = system: SNB-19
[32] = system: UO-31
[33] = system: RXF 393
[34] = system: T47D
[35] = system: UACC-62
[36] = system: NCI-H226
[37] = system: K562
[38] = system: HOP-62
[39] = system: SK-OV-3
[40] = system: OVCAR-5
[41] = system: A549
[42] = system: A498
[43] = system: M14
[44] = system: HOP-92
[45] = system: HCT-15
[46] = system: NCI-H460
[47] = system: 786-0
[48] = system: UACC-257
[49] = system: IGROV-1
[50] = system: HL-60
[51] = system: ACHN
[52] = system: SW-620
[53] = system: CCRF-CEM
[54] = system: DU-145
[55] = system: SF-295
[56] = system: NCI-H23

Measured: GI50

CC1=C[C@@H]2Cc3nc4cc(Cl)ccc4c(N)c3[C@H](C1)C2
7 µM: [45]
inactive: [1] 12.4 µM | [2] 7.6 µM | [3] 2.68 µM | [4] 10 µM | [5] 2.42 µM | [6] 15.5 µM | [7] 10.4 µM | [8] 3.89 µM | [9] 2.84 µM | [10] 5.78 µM | [11] 13.4 µM | [12] 12.5 µM | [13] 12.5 µM | [14] 1.48 µM | [15] 12.4 µM | [16] 12 µM | [17] 16.2 µM | [18] 3.32 µM | [19] 14.7 µM | [20] 4.97 µM | [21] 10.9 µM | [22] 15.3 µM | [23] 3.66 µM | [24] 2.07 µM | [25] 3.99 µM | [26] 11.7 µM | [27] 5.38 µM | [28] 2.96 µM | [29] 11.6 µM | [30] 12.3 µM | [31] 11.8 µM | [32] 5.06 µM | [33] 5.42 µM | [34] 12.3 µM | [35] 14.6 µM | [36] 8.38 µM | [37] 2.71 µM | [38] 11.2 µM | [39] 12 µM | [40] 4.28 µM | [41] 12.6 µM | [42] 11.2 µM | [43] 4.57 µM | [46] 9.02 µM | [47] 6.03 µM | [48] 2.02 µM | [49] 1.76 µM | [50] 15.3 µM | [51] 10.6 µM | [52] 11 µM | [53] 12.2 µM | [54] 12.9 µM | [55] 6.17 µM | [56] 8.22 µM
active: [44] 0.685 µM
